According to the supplement of paper PMC13207355:
Counter-ions that a name gives are not always drawn.

Tests used:
Conditions in all cases: exposure time: 72 h
E13 [1] = patient-derived glioblastoma stem cells of classical subtype; test: surviving fraction (nuclei count normalised to DMSO); higher = more cells surviving (less toxic)
E21 [2] = patient-derived glioblastoma stem cells of mesenchymal subtype; test: as above
E28 [3] = patient-derived glioblastoma stem cells of classical subtype; test: as above
E31 [4] = patient-derived glioblastoma stem cells of proneural subtype; test: as above
E34 [5] = patient-derived glioblastoma stem cells of proneural subtype; test: as above
E57 [6] = patient-derived glioblastoma stem cells of mesenchymal subtype; test: as above
FT3469 [7] = normal neural stem cell line; test: as above
E13 [8] = test: phenotypic distance (Euclidean, principal components) from DMSO controls (arbitrary units); higher = stronger morphological change
E21 [9] = test: as above
E28 [10] = test: as above
E31 [11] = test: as above
E34 [12] = test: as above
E57 [13] = test: as above
FT3469 [14] = test: as above
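Throughout, for phenotypic distance (Euclidean, principal components) from DMSO controls: cell Painting imaging in 384-well plates, CellProfiler features reduced to at least 20 principal components, Euclidean distance versus same-plate DMSO vehicle wells (0.1% v/v), median over six images per well.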
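Throughout, for surviving fraction (nuclei count normalised to DMSO): nuclei counted by high-content imaging of Hoechst-stained cells in laminin-coated 384-well plates, relative to 0.1% DMSO vehicle wells, with staurosporine as cell-death control.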

Q: Which results are given for `COc1cccc2c1C(=O)c1c(O)c3c(c(O)c1C2=O)C[C@@](O)(C(=O)CO)C[C@@H]3O[C@H]1C[C@H](N)[C@H](O)[C@H](C)O1` [Doxorubicin hydrochloride]?
A: surviving fraction (E13 [1]; 4.1 nM): 0.639; surviving fraction (E13 [1]; 12.3 nM): 0.527; surviving fraction (E13 [1]; 37 nM): 0.409; surviving fraction (E13 [1]; 111.1 nM): 0.265; surviving fraction (E13 [1]; 333.3 nM): 0.188; surviving fraction (E13 [1]; 1000 nM): 0.0799; surviving fraction (E13 [1]; 3000 nM): 0.0133; surviving fraction (E21 [2]; 4.1 nM): 0.799; surviving fraction (E21 [2]; 12.3 nM): 0.544; surviving fraction (E21 [2]; 37 nM): 0.428; surviving fraction (E21 [2]; 111.1 nM): 0.237; surviving fraction (E21 [2]; 333.3 nM): 0.17; surviving fraction (E21 [2]; 1000 nM): 0.0999; surviving fraction (E21 [2]; 3000 nM): 0.0192; surviving fraction (E28 [3]; 4.1 nM): 0.535; surviving fraction (E28 [3]; 12.3 nM): 0.403; surviving fraction (E28 [3]; 37 nM): 0.341; surviving fraction (E28 [3]; 111.1 nM): 0.163; surviving fraction (E28 [3]; 333.3 nM): 0.174; surviving fraction (E28 [3]; 1000 nM): 0.35; surviving fraction (E28 [3]; 3000 nM): 0.0586; surviving fraction (E31 [4]; 4.1 nM): 0.425; surviving fraction (E31 [4]; 12.3 nM): 0.381; surviving fraction (E31 [4]; 37 nM): 0.269; surviving fraction (E31 [4]; 111.1 nM): 0.186; surviving fraction (E31 [4]; 333.3 nM): 0.105; surviving fraction (E31 [4]; 1000 nM): 0.0519; surviving fraction (E31 [4]; 3000 nM): 0.0645; surviving fraction (E34 [5]; 4.1 nM): 0.738; surviving fraction (E34 [5]; 12.3 nM): 0.599; surviving fraction (E34 [5]; 37 nM): 0.502; surviving fraction (E34 [5]; 111.1 nM): 0.539; surviving fraction (E34 [5]; 333.3 nM): 0.502; surviving fraction (E34 [5]; 1000 nM): 0.346; surviving fraction (E34 [5]; 3000 nM): 0.123; surviving fraction (E57 [6]; 4.1 nM): 0.74; surviving fraction (E57 [6]; 12.3 nM): 0.411; surviving fraction (E57 [6]; 37 nM): 0.229; surviving fraction (E57 [6]; 111.1 nM): 0.172; surviving fraction (E57 [6]; 333.3 nM): 0.164; surviving fraction (E57 [6]; 1000 nM): 0.113; surviving fraction (E57 [6]; 3000 nM): 0.0765; surviving fraction (FT3469 [7]; 4.1 nM): 0.574; surviving fraction (FT3469 [7]; 12.3 nM): 0.678; surviving fraction (FT3469 [7]; 37 nM): 0.598; surviving fraction (FT3469 [7]; 111.1 nM): 0.582; surviving fraction (FT3469 [7]; 333.3 nM): 0.234; surviving fraction (FT3469 [7]; 1000 nM): 0.149; surviving fraction (FT3469 [7]; 3000 nM): 0.0213; phenotypic distance (E13 [8]; 4.1 nM): 2.25; phenotypic distance (E13 [8]; 12.3 nM): 3.82; phenotypic distance (E13 [8]; 37 nM): 5.4; phenotypic distance (E13 [8]; 111.1 nM): 6.04; phenotypic distance (E13 [8]; 333.3 nM): 6.31; phenotypic distance (E13 [8]; 1000 nM): 6.48; phenotypic distance (E13 [8]; 3000 nM): 6.01; phenotypic distance (E21 [9]; 4.1 nM): 1.5; phenotypic distance (E21 [9]; 12.3 nM): 4.4; phenotypic distance (E21 [9]; 37 nM): 6.35; phenotypic distance (E21 [9]; 111.1 nM): 5.11; phenotypic distance (E21 [9]; 333.3 nM): 5.4; phenotypic distance (E21 [9]; 1000 nM): 5.92; phenotypic distance (E21 [9]; 3000 nM): 6.77; phenotypic distance (E28 [10]; 4.1 nM): 2.14; phenotypic distance (E28 [10]; 12.3 nM): 2.39; phenotypic distance (E28 [10]; 37 nM): 2.6; phenotypic distance (E28 [10]; 111.1 nM): 3.51; phenotypic distance (E28 [10]; 333.3 nM): 3.16; phenotypic distance (E28 [10]; 1000 nM): 3.08; phenotypic distance (E28 [10]; 3000 nM): 5.26; phenotypic distance (E31 [11]; 4.1 nM): 2.91; phenotypic distance (E31 [11]; 12.3 nM): 2.49; phenotypic distance (E31 [11]; 37 nM): 2.07; phenotypic distance (E31 [11]; 111.1 nM): 2.28; phenotypic distance (E31 [11]; 333.3 nM): 4.77; phenotypic distance (E31 [11]; 1000 nM): 5.51; phenotypic distance (E31 [11]; 3000 nM): 5.71; phenotypic distance (E34 [12]; 4.1 nM): 0.849; phenotypic distance (E34 [12]; 12.3 nM): 3.53; phenotypic distance (E34 [12]; 37 nM): 4.3; phenotypic distance (E34 [12]; 111.1 nM): 3.08; phenotypic distance (E34 [12]; 333.3 nM): 2.7; phenotypic distance (E34 [12]; 1000 nM): 5.02; phenotypic distance (E34 [12]; 3000 nM): 4.21; phenotypic distance (E57 [13]; 4.1 nM): 1.85; phenotypic distance (E57 [13]; 12.3 nM): 4.6; phenotypic distance (E57 [13]; 37 nM): 8.27; phenotypic distance (E57 [13]; 111.1 nM): 7.23; phenotypic distance (E57 [13]; 333.3 nM): 7.01; phenotypic distance (E57 [13]; 1000 nM): 7.35; phenotypic distance (E57 [13]; 3000 nM): 7.3; phenotypic distance (FT3469 [14]; 4.1 nM): 1.83; phenotypic distance (FT3469 [14]; 12.3 nM): 1.46; phenotypic distance (FT3469 [14]; 37 nM): 1.66; phenotypic distance (FT3469 [14]; 111.1 nM): 1.6; phenotypic distance (FT3469 [14]; 333.3 nM): 4.2; phenotypic distance (FT3469 [14]; 1000 nM): 3; phenotypic distance (FT3469 [14]; 3000 nM): 8.29
